Assay: isobaric coefficient of expansion
Details: Liquid, DSC with Pressure Shift

CCCCCCCCCO [nonan-1-ol]
isobaric coefficient of expansion
Details | 278.15 K | 288.15 K | 298.15 K | 308.15 K | 318.15 K | 328.15 K | 338.15 K | 348.15 K
5000 kPa | 0.000819 1/K | 0.000805 1/K | 0.000816 1/K | 0.000829 1/K | 0.000846 1/K | 0.000863 1/K | 0.000886 1/K | 0.000912 1/K
10000 kPa | 0.000795 1/K | 0.000791 1/K | 0.000798 1/K | 0.00081 1/K | 0.000826 1/K | 0.00084 1/K | 0.000858 1/K | 0.000879 1/K
15000 kPa | 0.000786 1/K | 0.000772 1/K | 0.000782 1/K | 0.000792 1/K | 0.000801 1/K | 0.000815 1/K | 0.000831 1/K | 0.000853 1/K
20000 kPa | 0.000759 1/K | 0.000759 1/K | 0.000762 1/K | 0.000773 1/K | 0.000785 1/K | 0.000792 1/K | 0.000807 1/K | 0.000827 1/K
25000 kPa | 0.000741 1/K | 0.000743 1/K | 0.000745 1/K | 0.000753 1/K | 0.000764 1/K | 0.000775 1/K | 0.000789 1/K | 0.000806 1/K
30000 kPa | 0.000733 1/K | 0.000728 1/K | 0.000732 1/K | 0.000736 1/K | 0.000748 1/K | 0.000759 1/K | 0.000773 1/K | 0.000787 1/K
35000 kPa | 0.000719 1/K | 0.000716 1/K | 0.00072 1/K | 0.000723 1/K | 0.000732 1/K | 0.000743 1/K | 0.000754 1/K | 0.000768 1/K
40000 kPa | 0.000704 1/K | 0.000705 1/K | 0.000705 1/K | 0.00071 1/K | 0.000715 1/K | 0.000728 1/K | 0.000736 1/K | 0.000749 1/K
45000 kPa | 0.000693 1/K | 0.000698 1/K | 0.000693 1/K | 0.000695 1/K | 0.000702 1/K | 0.000715 1/K | 0.000722 1/K | 0.000734 1/K
50000 kPa | 0.000685 1/K | 0.000691 1/K | 0.000682 1/K | 0.000684 1/K | 0.00069 1/K | 0.0007 1/K | 0.000708 1/K | 0.000719 1/K
55000 kPa | 0.000672 1/K | 0.000677 1/K | 0.000672 1/K | 0.000673 1/K | 0.000678 1/K | 0.000687 1/K | 0.000695 1/K | 0.000705 1/K

CCCCCCCCO [octan-1-ol]
isobaric coefficient of expansion
Details | 278.15 K | 288.15 K | 298.15 K | 308.15 K | 318.15 K | 328.15 K | 338.15 K | 348.15 K
5000 kPa | 0.000816 1/K | 0.000817 1/K | 0.000818 1/K | 0.00084 1/K | 0.000859 1/K | 0.000877 1/K | 0.0009 1/K | 0.000928 1/K
10000 kPa | 0.000798 1/K | 0.000793 1/K | 0.000799 1/K | 0.000821 1/K | 0.000837 1/K | 0.00085 1/K | 0.000873 1/K | 0.000896 1/K
15000 kPa | 0.00078 1/K | 0.000774 1/K | 0.000784 1/K | 0.000801 1/K | 0.000815 1/K | 0.000827 1/K | 0.000845 1/K | 0.000865 1/K
20000 kPa | 0.000755 1/K | 0.000761 1/K | 0.000764 1/K | 0.000783 1/K | 0.000793 1/K | 0.000805 1/K | 0.000822 1/K | 0.000843 1/K
25000 kPa | 0.000742 1/K | 0.000746 1/K | 0.000749 1/K | 0.000762 1/K | 0.000775 1/K | 0.000787 1/K | 0.000801 1/K | 0.000821 1/K
30000 kPa | 0.00073 1/K | 0.000732 1/K | 0.000736 1/K | 0.000746 1/K | 0.000758 1/K | 0.000767 1/K | 0.000783 1/K | 0.0008 1/K
35000 kPa | 0.000717 1/K | 0.000715 1/K | 0.000724 1/K | 0.00073 1/K | 0.000742 1/K | 0.000751 1/K | 0.000766 1/K | 0.00078 1/K
40000 kPa | 0.000704 1/K | 0.000707 1/K | 0.000714 1/K | 0.000716 1/K | 0.000727 1/K | 0.000735 1/K | 0.000746 1/K | 0.000762 1/K
45000 kPa | 0.00069 1/K | 0.000692 1/K | 0.000698 1/K | 0.000702 1/K | 0.000711 1/K | 0.000719 1/K | 0.000731 1/K | 0.000745 1/K
50000 kPa | 0.000683 1/K | 0.000681 1/K | 0.000687 1/K | 0.000692 1/K | 0.000698 1/K | 0.000705 1/K | 0.000717 1/K | 0.000731 1/K
55000 kPa | 0.000673 1/K | 0.000671 1/K | 0.000676 1/K | 0.000678 1/K | 0.000688 1/K | 0.000692 1/K | 0.000705 1/K | 0.000717 1/K

CCCCCO [pentan-1-ol]
isobaric coefficient of expansion
Details | 278.15 K | 288.15 K | 298.15 K | 308.15 K | 318.15 K | 328.15 K | 338.15 K | 348.15 K
5000 kPa | 0.000863 1/K | 0.000873 1/K | 0.000889 1/K | 0.000908 1/K | 0.000934 1/K | 0.00096 1/K | 0.001 1/K | 0.00105 1/K
10000 kPa | 0.000833 1/K | 0.00085 1/K | 0.000864 1/K | 0.000883 1/K | 0.000904 1/K | 0.00093 1/K | 0.000961 1/K | 0.001 1/K
15000 kPa | 0.000826 1/K | 0.000831 1/K | 0.000847 1/K | 0.00086 1/K | 0.000879 1/K | 0.000899 1/K | 0.000927 1/K | 0.00096 1/K
20000 kPa | 0.000805 1/K | 0.000813 1/K | 0.000825 1/K | 0.000838 1/K | 0.000853 1/K | 0.000873 1/K | 0.000899 1/K | 0.000927 1/K
25000 kPa | 0.000788 1/K | 0.000795 1/K | 0.000805 1/K | 0.000816 1/K | 0.00083 1/K | 0.000849 1/K | 0.000874 1/K | 0.000899 1/K
30000 kPa | 0.000778 1/K | 0.000779 1/K | 0.000788 1/K | 0.000796 1/K | 0.000814 1/K | 0.000827 1/K | 0.000847 1/K | 0.000871 1/K
35000 kPa | 0.000752 1/K | 0.000761 1/K | 0.000772 1/K | 0.00078 1/K | 0.000794 1/K | 0.000809 1/K | 0.000828 1/K | 0.000849 1/K
40000 kPa | 0.000742 1/K | 0.000747 1/K | 0.000757 1/K | 0.000763 1/K | 0.000776 1/K | 0.00079 1/K | 0.000806 1/K | 0.000826 1/K
45000 kPa | 0.000735 1/K | 0.000735 1/K | 0.000741 1/K | 0.000748 1/K | 0.000759 1/K | 0.000772 1/K | 0.000786 1/K | 0.000807 1/K
50000 kPa | 0.000719 1/K | 0.000724 1/K | 0.000729 1/K | 0.000734 1/K | 0.000745 1/K | 0.000755 1/K | 0.000773 1/K | 0.000787 1/K
55000 kPa | 0.000714 1/K | 0.000713 1/K | 0.000717 1/K | 0.000721 1/K | 0.000731 1/K | 0.00074 1/K | 0.000755 1/K | 0.000768 1/K

CCCC(C)O (configuration not stated) [pentan-2-ol]
isobaric coefficient of expansion
Details | 278.15 K | 288.15 K | 298.15 K | 308.15 K | 318.15 K | 328.15 K | 338.15 K | 348.15 K
5000 kPa | 0.000883 1/K | 0.000922 1/K | 0.000961 1/K | 0.00101 1/K | 0.00106 1/K | 0.0011 1/K | 0.00114 1/K | 0.00119 1/K
10000 kPa | 0.000858 1/K | 0.000896 1/K | 0.000935 1/K | 0.000983 1/K | 0.00103 1/K | 0.00107 1/K | 0.00111 1/K | 0.00115 1/K
15000 kPa | 0.00084 1/K | 0.00088 1/K | 0.000914 1/K | 0.000956 1/K | 0.001 1/K | 0.00103 1/K | 0.00107 1/K | 0.00111 1/K
20000 kPa | 0.000827 1/K | 0.000857 1/K | 0.00089 1/K | 0.000929 1/K | 0.000971 1/K | 0.00101 1/K | 0.00105 1/K | 0.00108 1/K
25000 kPa | 0.000801 1/K | 0.000842 1/K | 0.000872 1/K | 0.000909 1/K | 0.000946 1/K | 0.000983 1/K | 0.00102 1/K | 0.00105 1/K
30000 kPa | 0.000789 1/K | 0.000823 1/K | 0.000851 1/K | 0.000889 1/K | 0.000923 1/K | 0.000957 1/K | 0.000991 1/K | 0.00102 1/K
35000 kPa | 0.000773 1/K | 0.000805 1/K | 0.000834 1/K | 0.000868 1/K | 0.000902 1/K | 0.000933 1/K | 0.000967 1/K | 0.000995 1/K
40000 kPa | 0.000756 1/K | 0.000788 1/K | 0.00081 1/K | 0.00085 1/K | 0.000879 1/K | 0.000914 1/K | 0.000941 1/K | 0.00097 1/K
45000 kPa | 0.000745 1/K | 0.000775 1/K | 0.000799 1/K | 0.00083 1/K | 0.00086 1/K | 0.000889 1/K | 0.00092 1/K | 0.000946 1/K
50000 kPa | 0.00073 1/K | 0.000758 1/K | 0.000784 1/K | 0.000814 1/K | 0.000841 1/K | 0.000872 1/K | 0.000899 1/K | 0.000923 1/K
55000 kPa | 0.000719 1/K | 0.000745 1/K | 0.000766 1/K | 0.000793 1/K | 0.000819 1/K | 0.000844 1/K | 0.000866 1/K | 0.000888 1/K

Reference: the NIST ThermoML archive (doi:10.1016/j.jct.2009.07.002)
